Data as given in the OPERA property sets (Mansouri et al. 2018).
≈ marks a conversion by molar mass, not a printed value.

Details: not given
In the case of `CCCC(=O)OCOc1ccccc1C(N)=O`, the logP is reported as 1.66. `CCOC(=O)CC(CO)C(CC)c1cncn1C` (stereo not given) gave a logP of 0.73. With `CC(=O)OCOc1ccccc1C(=O)NCN1CCOCC1` the logP was 0.27. `CCC(C(=O)OCCc1ccccc1)C(COC(=O)c1ccccc1)Cc1cncn1C` (stereo not given) gave a logP of 4.6. `CC(=O)OCOc1ccccc1C(N)=O` gave a logP of 0.52. In the case of `O=C(NCN1CCOCC1)c1ccccc1O`, the logP is reported as 1.27. With `CC(C)(C)C(=O)OCOc1ccccc1C(=O)NCN1CCOCC1` the logP was 1.81. For `CC(C)(C)C(=O)OCOc1ccccc1C(N)=O`, the logP was 2. `CCCC(=O)OCOc1ccccc1C(=O)NCN1CCOCC1` gave a logP of 1.34.

Same assay, conditions: 23 °C
`CC(C)(C)C(=O)OCOc1ccccc1C(N)=O` showed a solubility of 2430 µM (≈ 610 µg/mL).
